In patent US10689354B2, “Aminoazole derivative” (Teijin Pharma Limited, priority 2015, dated 2020):

Legend:
human androgen receptor = target: T1, human androgen receptor (Homo sapiens, UniProt P10275); experiment: Reporter assay of an androgen receptor responsive sequence (luciferase, transiently transfected HEK293 cells); type: cell-based; conditions: 24 hours incubation, relative to activity of 100 nM DHT, read-out: AR transcriptive activity (pEC50) (converted)
T1 construct: expressed in transfected cells; host or cells: HEK293
T1 sequence (P10275 1-920): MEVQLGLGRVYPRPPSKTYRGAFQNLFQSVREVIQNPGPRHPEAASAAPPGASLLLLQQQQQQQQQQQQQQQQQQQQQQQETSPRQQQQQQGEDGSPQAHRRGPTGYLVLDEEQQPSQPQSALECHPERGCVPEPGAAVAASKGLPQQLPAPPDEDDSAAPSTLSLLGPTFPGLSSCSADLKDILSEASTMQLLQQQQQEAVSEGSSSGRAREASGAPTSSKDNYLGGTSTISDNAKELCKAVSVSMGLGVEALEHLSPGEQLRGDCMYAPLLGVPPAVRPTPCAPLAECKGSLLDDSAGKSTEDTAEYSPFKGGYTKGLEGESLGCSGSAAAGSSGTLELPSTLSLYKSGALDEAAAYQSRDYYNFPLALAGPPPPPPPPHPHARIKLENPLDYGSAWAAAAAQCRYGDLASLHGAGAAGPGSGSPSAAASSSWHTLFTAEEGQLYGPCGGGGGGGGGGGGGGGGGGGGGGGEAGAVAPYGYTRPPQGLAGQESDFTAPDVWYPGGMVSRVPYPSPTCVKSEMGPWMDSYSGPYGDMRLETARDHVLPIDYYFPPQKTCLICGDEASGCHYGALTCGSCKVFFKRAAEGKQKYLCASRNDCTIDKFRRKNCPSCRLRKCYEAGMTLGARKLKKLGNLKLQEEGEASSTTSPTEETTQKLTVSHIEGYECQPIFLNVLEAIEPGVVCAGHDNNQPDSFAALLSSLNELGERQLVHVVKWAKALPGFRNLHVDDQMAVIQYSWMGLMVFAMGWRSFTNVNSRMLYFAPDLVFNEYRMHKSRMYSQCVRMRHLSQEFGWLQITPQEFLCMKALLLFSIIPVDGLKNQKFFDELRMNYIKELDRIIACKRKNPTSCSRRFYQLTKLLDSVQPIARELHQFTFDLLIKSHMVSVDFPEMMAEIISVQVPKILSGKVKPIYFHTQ
Outline: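 HEK293 cells transiently transfected for 3 h with ARE-firefly luciferase, full-length human AR and TK-Renilla plasmids, then exposed to compound for 24 h at 37 °C in 5% charcoal-treated FBS/DMEM. Dual-Glo luminescence read; pEC50 from 4-parameter fit relative to 100 nM DHT.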

[1] = target: T2, androgen receptor (AR-LBD) (Rattus norvegicus, UniProt P15207); experiment: Evaluation of androgen receptor affinity (PolarScreen Androgen Receptor Competitor Assay Kit, Red; fluorescence polarization); conditions: 22° C. for 5 hours, relative to binding rate of 1 μM DHT, read-out: AR affinity (pEC50) (converted)
T2 construct: 5 μL of 2×AR-LBD/Fluoromone AL Red Complex contained in the kit; purchased Invitrogen
T2 sequence (P15207 651-882 limits assumed): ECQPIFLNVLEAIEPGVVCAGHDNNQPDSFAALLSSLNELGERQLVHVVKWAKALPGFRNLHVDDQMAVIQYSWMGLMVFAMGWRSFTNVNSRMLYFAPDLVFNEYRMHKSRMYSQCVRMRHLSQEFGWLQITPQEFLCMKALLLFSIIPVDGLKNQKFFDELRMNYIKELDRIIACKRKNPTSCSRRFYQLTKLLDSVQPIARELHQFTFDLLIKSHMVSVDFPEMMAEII
Outline: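 Fluorescence polarization read-out after 5 h at 22° C of compound with a red-fluorophore-labelled AR-LBD complex. Displacement is scaled against 1 μM DHT, and the log reciprocal of the concentration reaching half that effect gives pEC50 via four-parameter curve fitting.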

| SMILES | EC50 (human androgen receptor) | EC50 [1] |
| --- | --- | --- |
| CCc1oc(N(Cc2ccc(C(F)(F)F)cn2)c2ccc(C#N)cc2)nc1C(=O)NS(C)(=O)=O [Compound 638, 2-[4-cyano-N-[[5-(trifluoromethyl)-2-pyridyl]methyl]anilino]-5-ethyl-N-methylsulfonyl-oxazole-4-carboxamide] | 3160 nM | 200 nM |
| CCc1oc(N(Cc2ccc(C(F)(F)F)nc2)c2ccc(C#N)cc2)nc1C(=O)NS(C)(=O)=O [Compound 639, 2-[4-cyano-N-[[6-(trifluoromethyl)-3-pyridyl]methyl]anilino]-5-ethyl-N-methylsulfonyl-oxazole-4-carboxamide] | 7940 nM | 251 nM |
| CS(=O)(=O)NC(=O)c1nc(N(Cc2ccc(F)cn2)c2ccc(C#N)cc2)sc1Br [Compound 640, 5-bromo-2-[4-cyano-N-[(5-fluoro-2-pyridyl)methyl]anilino]-N-methylsulfonyl-thiazole-4-carboxamide] | 316 nM | 398 nM |
| CS(=O)(=O)NC(=O)c1nc(N(Cc2ccc(Cl)cn2)c2ccc(C#N)cc2)sc1Br [Compound 641, 5-bromo-2-[N-[(5-chloro-2-pyridyl)methyl]-4-cyano-anilino]-N-methylsulfonyl-thiazole-4-carboxamide] | 79.4 nM | 126 nM |
| CS(=O)(=O)NC(=O)c1nc(N(Cc2ccc(Br)cn2)c2ccc(C#N)cc2)sc1Br [Compound 642, 5-bromo-2-[N-[(5-bromo-2-pyridyl)methyl]-4-cyano-anilino]-N-methylsulfonyl-thiazole-4-carboxamide] | 50.1 nM | 79.4 nM |
| CS(=O)(=O)NC(=O)c1nc(N(Cc2ccc(C(F)(F)F)cn2)c2ccc(C#N)cc2)sc1Br [Compound 643, 5-bromo-2-[4-cyano-N-[[5-(trifluoromethyl)-2-pyridyl]methyl]anilino]-N-methylsulfonyl-thiazole-4-carboxamide] | 63.1 nM | 79.4 nM |
| CS(=O)(=O)NC(=O)c1nc(N(Cc2ccc(Cl)cn2)c2ccc(C(F)(F)F)nc2)sc1Br [Compound 644, 5-bromo-2-[(5-chloro-2-pyridyl)methyl-[6-(trifluoromethyl)-3-pyridyl]amino]-N-methylsulfonyl-thiazole-4-carboxamide] | 501 nM | 200 nM |
| CS(=O)(=O)NC(=O)c1nc(N(Cc2ccc(C(F)(F)F)nc2)c2ccc(C#N)cc2)sc1Br [Compound 645, 5-bromo-2-[4-cyano-N-[[6-(trifluoromethyl)-3-pyridyl]methyl]anilino]-N-methylsulfonyl-thiazole-4-carboxamide] | 1260 nM | 63.1 nM |
| CS(=O)(=O)NC(=O)c1nc(N(Cc2ccc(Cl)cc2)c2ccc(C#N)cc2)oc1C1CC1 [Compound 646, 2-[N-[(4-chlorophenyl)methyl]-4-cyano-anilino]-5-cyclopropyl-N-methylsulfonyl-oxazole-4-carboxamide] | > 10000 nM | 39.8 nM |
| CS(=O)(=O)NC(=O)c1nc(N(Cc2ccc(Cl)c(Cl)c2)c2ccc(C#N)cc2)oc1C1CC1 [Compound 647, 2-[4-cyano-N-[(3,4-dichlorophenyl)methyl]anilino]-5-cyclopropyl-N-methylsulfonyl-oxazole-4-carboxamide] | > 10000 nM | 25.1 nM |
| CS(=O)(=O)NC(=O)c1nc(N(Cc2ccc(OC(F)F)cc2)c2ccc(C#N)cc2)oc1C1CC1 [Compound 648, 2-[4-cyano-N-[[4-(difluoromethoxy)phenyl]methyl]anilino]-5-cyclopropyl-N-methylsulfonyl-oxazole-4-carboxamide] | > 10000 nM | 50.1 nM |
| CS(=O)(=O)NC(=O)c1nc(N(Cc2ccc(C(F)(F)F)cn2)c2ccc(C#N)cc2)oc1C1CC1 [Compound 649, 2-[4-cyano-N-[[5-(trifluoromethyl)-2-pyridyl]methyl]anilino]-5-cyclopropyl-N-methylsulfonyl-oxazole-4-carboxamide] | > 10000 nM | 631 nM |
| CCc1oc(N(Cc2ccc(Br)c(Cl)c2)c2ccc(C#N)cc2)nc1C(=O)NS(C)(=O)=O [Compound 650, 2-[N-[(4-bromo-3-chloro-phenyl)methyl]-4-cyano-anilino]-5-ethyl-N-methylsulfonyl-oxazole-4-carboxamide] | 200 nM | 31.6 nM |
| CCc1oc(N(Cc2ccc(Cl)c(F)c2)c2ccc(C#N)cc2)nc1C(=O)NS(C)(=O)=O [Compound 651, 2-[N-[(4-chloro-3-fluoro-phenyl)methyl]-4-cyano-anilino]-5-ethyl-N-methylsulfonyl-oxazole-4-carboxamide] | 200 nM | 39.8 nM |
| CCc1oc(N(Cc2ccc(Br)c(F)c2)c2ccc(C#N)cc2)nc1C(=O)NS(C)(=O)=O [Compound 652, 2-[N-[(4-bromo-3-fluoro-phenyl)methyl]-4-cyano-anilino]-5-ethyl-N-methylsulfonyl-oxazole-4-carboxamide] | 158 nM | 25.1 nM |
| CCc1oc(N(Cc2ccc(Br)cc2)c2ccc(C#N)cc2)nc1C(=O)NS(C)(=O)=O [Compound 653, 2-[N-[(4-bromophenyl)methyl]-4-cyano-anilino]-5-ethyl-N-methylsulfonyl-oxazole-4-carboxamide] | 158 nM | 50.1 nM |
| CCc1oc(N(Cc2ccc(OC(F)F)c(F)c2)c2ccc(C#N)cc2)nc1C(=O)NS(C)(=O)=O [Compound 654, 2-[4-cyano-N-[[4-(difluoromethoxy)-3-fluoro-phenyl]methyl]anilino]-5-ethyl-N-methylsulfonyl-oxazole-4-carboxamide] | 631 nM | 39.8 nM |
| CCc1oc(N(Cc2ccc(C(F)(F)F)c(F)c2)c2ccc(C#N)cc2)nc1C(=O)NS(C)(=O)=O [Compound 655, 2-[4-cyano-N-[[3-fluoro-4-(trifluoromethyl)phenyl]methyl]anilino]-5-ethyl-N-methylsulfonyl-oxazole-4-carboxamide] | 398 nM | 39.8 nM |
| CCc1oc(N(Cc2cc(F)cc(OC(F)F)c2)c2ccc(C#N)cc2)nc1C(=O)NS(C)(=O)=O [Compound 656, 2-[4-cyano-N-[[3-(difluoromethoxy)-5-fluoro-phenyl]methyl]anilino]-5-ethyl-N-methylsulfonyl-oxazole-4-carboxamide] | 631 nM | 20 nM |
| CS(=O)(=O)NC(=O)c1nc(N(Cc2ccccc2)c2ccc(C#N)cc2)sc1Cl [Compound 657, 2-(N-benzyl-4-cyano-anilino)-5-chloro-N-methylsulfonyl-thiazole-4-carboxamide] | 50.1 nM | 31.6 nM |
| CS(=O)(=O)NC(=O)c1nc(N(Cc2ccc(Cl)cn2)c2ccc(C#N)cc2)sc1C1CC1 [Compound 658, 2-[N-[(5-chloro-2-pyridyl)methyl]-4-cyano-anilino]-5-cyclopropyl-N-methylsulfonyl-thiazole-4-carboxamide] | 5010 nM | 100 nM |
| CS(=O)(=O)NC(=O)c1nc(N(Cc2ccc(C(F)(F)F)nc2)c2ccc(C#N)cc2)sc1C1CC1 [Compound 659, 2-[4-cyano-N-[[6-(trifluoromethyl)-3-pyridyl]methyl]anilino]-5-cyclopropyl-N-methylsulfonyl-thiazole-4-carboxamide] | > 10000 nM | 126 nM |
| CS(=O)(=O)NC(=O)c1nc(N(Cc2ccccc2)c2ccc(C#N)cc2)sc1C1CC1 [Compound 660, 2-(N-benzyl-4-cyano-anilino)-5-cyclopropyl-N-methylsulfonyl-thiazole-4-carboxamide] | > 10000 nM | 79.4 nM |
| CS(=O)(=O)NC(=O)c1nc(N(Cc2ccc(Cl)cc2)c2ccc(C#N)cc2)sc1C1CC1 [Compound 661, 2-[N-[(4-chlorophenyl)methyl]-4-cyano-anilino]-5-cyclopropyl-N-methylsulfonyl-thiazole-4-carboxamide] | 501 nM | 15.8 nM |
